Experimental data from ChEMBL document CHEMBL1201862, “PubChem BioAssay data set” (2004).
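Dose response: 5 concentrations. Exposure: 48 h. Format: 96-well plates. Endpoint: linear interpolation; highest concentration if not reached. GI50: concentration for 50% inhibition of growth.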 The source made the active and inactive calls. Rule as the data show it: active = GI50 up to about 1.1 µM and inactive = higher. Non-standard residues stand in square brackets, D forms with d. Residues, ends and D or L forms follow the SMILES beside them. ξ: configuration not given here. *: point of attachment. NMeF = CN[C@@H](Cc1ccccc1)C(=O)O; NMeN = CN[C@@H](CC(N)=O)C(=O)O; NMeV = CN[C@H](C(=O)O)C(C)C; ξNMeV = CNC(C(=O)O)C(C)C; Boc = CC(C)(C)OC(=O)*; ξNMeA = CNC(C)C(=O)O; ξV = CC(C)C(N)C(=O)O

Columns and labels:
Test in all cases: NCI tumour cell line growth inhibition, 48 h
[1] = system: A498
[2] = system: HCC 2998
[3] = system: SF-268
[4] = system: UACC-257
[5] = system: TK-10
[6] = system: SR
[7] = system: SK-MEL-5
[8] = system: OVCAR-5
[9] = system: SK-MEL-2
[10] = system: PC-3
[11] = system: Hs-578T
[12] = system: A549
[13] = system: SK-OV-3
[14] = system: CCRF-CEM
[15] = system: SW-620
[16] = system: UO-31
[17] = system: EKVX
[18] = system: U-251
[19] = system: HCT-116
[20] = system: HOP-62

Row | Structure (SMILES) | GI50 [1] | GI50 [2] | GI50 [3] | GI50 [4] | GI50 [5] | GI50 [6] | GI50 [7] | GI50 [8] | GI50 [9] | GI50 [10] | GI50 [11] | GI50 [12] | GI50 [13] | GI50 [14] | GI50 [15] | GI50 [16] | GI50 [17] | GI50 [18] | GI50 [19] | GI50 [20]
1 | COc1cc2c(=O)cnoc2cc1O | 39.5 µM (inactive) | > 100 µM (inactive) | > 100 µM (inactive) | > 100 µM (inactive) | > 100 µM (inactive) | > 100 µM (inactive) | > 100 µM (inactive) | > 100 µM (inactive) | > 100 µM (inactive) | > 100 µM (inactive) | > 100 µM (inactive) | > 100 µM (inactive) | > 100 µM (inactive) | > 100 µM (inactive) | > 100 µM (inactive) | > 100 µM (inactive) | > 100 µM (inactive) | > 100 µM (inactive) |  | 
2 | CC(=O)Nc1ccc(/C=C2/NC(=S)N(/C=C3\C(=O)Oc4ccccc4C3=O)C2=O)cc1 | 87.5 µM (inactive) | 43.2 µM (inactive) | 29.4 µM (inactive) | > 100 µM (inactive) | 55.8 µM (inactive) | 39.3 µM (inactive) | 77.6 µM (inactive) | > 100 µM (inactive) | 40.9 µM (inactive) | 54.5 µM (inactive) | 22.5 µM (inactive) | 58.9 µM (inactive) | 66.1 µM (inactive) | 45.1 µM (inactive) | 91 µM (inactive) | 39.5 µM (inactive) | > 100 µM (inactive) | 46.3 µM (inactive) | 52.7 µM (inactive) | 48 µM (inactive)
3 | CCCCCCCCCCCC(=O)c1c(O)cc(C)oc1=O | 81.8 µM (inactive) | 42 µM (inactive) | 42.2 µM (inactive) | 57.9 µM (inactive) | > 100 µM (inactive) | > 10 µM (inactive) | 29 µM (inactive) | 92.7 µM (inactive) | 56.4 µM (inactive) | 27.2 µM (inactive) | 51.6 µM (inactive) | 27.8 µM (inactive) | 64.6 µM (inactive) | 23.7 µM (inactive) | 41.1 µM (inactive) | 40.6 µM (inactive) | 38.5 µM (inactive) | 48.5 µM (inactive) | 45.7 µM (inactive) | 60 µM (inactive)
4 | COC(=O)C(C)N(C)C(=O)[C@H](CC(N)=O)N(C)C(=O)[C@@H]1CCCN1C(=O)[C@H](C(C)C)N(C)C(=O)C(C(C)C)N(C)C(=O)[C@H](Cc1ccccc1)N(C)C(=O)C(NC(=O)OC(C)(C)C)C(C)C (stereo partly drawn) (Boc-[ξV][NMeF][ξNMeV][NMeV]P[NMeN][ξNMeA]-OMe) | 44.4 µM (inactive) | 18.8 µM (inactive) | 13.9 µM (inactive) | 25.6 µM (inactive) | 21.2 µM (inactive) | 5.15 µM (inactive) | 17.2 µM (inactive) | > 50 µM (inactive) | 9.1 µM (inactive) | 16.1 µM (inactive) | 10.8 µM (inactive) | > 50 µM (inactive) | 46.2 µM (inactive) | 24 µM (inactive) | 28.1 µM (inactive) | 37.8 µM (inactive) | > 50 µM (inactive) | 11.2 µM (inactive) | 16.3 µM (inactive) | 11.5 µM (inactive)
5 | OC(O)(C(F)(F)F)C(F)(F)F | > 100 µM (inactive) | > 100 µM (inactive) | > 100 µM (inactive) | > 100 µM (inactive) | > 100 µM (inactive) | > 100 µM (inactive) | > 100 µM (inactive) | > 100 µM (inactive) | > 100 µM (inactive) | > 100 µM (inactive) | > 100 µM (inactive) | > 100 µM (inactive) | > 100 µM (inactive) | > 100 µM (inactive) | > 100 µM (inactive) | > 100 µM (inactive) | > 100 µM (inactive) | > 100 µM (inactive) | > 100 µM (inactive) | > 100 µM (inactive)
6 | NS(=O)(=O)c1ccc(Nc2c3ccccc3nc3c(C(=O)NC(CO)(CO)CO)cccc23)cc1 | 0.224 µM (active) | 0.212 µM (active) | 0.17 µM (active) | 0.181 µM (active) | 0.164 µM (active) | 0.334 µM (active) | 0.107 µM (active) | 0.233 µM (active) | 0.21 µM (active) | 0.226 µM (active) | 0.154 µM (active) | 0.123 µM (active) | 0.188 µM (active) | 0.0557 µM (active) | 0.163 µM (active) | 0.171 µM (active) | 0.314 µM (active) | 0.119 µM (active) | 0.144 µM (active) | 0.178 µM (active)
7 | COC(=O)C1CCC(=O)N1C(c1ccc(OC)cc1)c1ccc(OC)cc1 (stereo not drawn) | > 100 µM (inactive) | > 100 µM (inactive) | > 100 µM (inactive) | > 100 µM (inactive) | > 100 µM (inactive) | > 100 µM (inactive) | > 100 µM (inactive) | > 100 µM (inactive) | > 100 µM (inactive) | > 100 µM (inactive) | > 100 µM (inactive) | > 100 µM (inactive) | > 100 µM (inactive) | > 100 µM (inactive) | > 100 µM (inactive) | > 100 µM (inactive) | > 100 µM (inactive) | > 100 µM (inactive) | > 100 µM (inactive) | > 100 µM (inactive)
